Measurements as given in the NIST ThermoML archive (doi:10.1016/j.jct.2016.01.019).
Numbers after ± are expanded uncertainties.

Assay: refractive index (other wavelength) (dimensionless); xn = mol fraction of the nth substance listed
Settings: 94.64 kPa, Liquid, Standard Abbe refractometry, x1 = 1

CC(O)CO (stereo not drawn) [1,2-propanediol] + OCCCO
refractive index
Settings	Wavelength=404.7 nm	Wavelength=435.8 nm	Wavelength=486.1 nm	Wavelength=546.1 nm	Wavelength=587.6 nm	Wavelength=632.8 nm	Wavelength=644 nm	Wavelength=706.5 nm
293.15 K	1.445 ± 0.002	1.44204 ± 0.002	1.43722 ± 0.002	1.43406 ± 0.002	1.43227 ± 0.002	1.43023 ± 0.002	1.43008 ± 0.002	1.42866 ± 0.002
298.15 K	1.4429 ± 0.002	1.43967 ± 0.002	1.43566 ± 0.002	1.43245 ± 0.002	1.4305 ± 0.002	1.429 ± 0.002	1.4289 ± 0.002	1.42701 ± 0.002
303.15 K	1.44135 ± 0.002	1.43785 ± 0.002	1.43417 ± 0.002	1.43096 ± 0.002	1.42927 ± 0.002	1.42774 ± 0.002	1.42734 ± 0.002	1.42571 ± 0.002
308.15 K	1.43955 ± 0.002	1.43622 ± 0.002	1.43239 ± 0.002	1.42919 ± 0.002	1.42752 ± 0.002	1.426 ± 0.002	1.42565 ± 0.002	1.42397 ± 0.002
313.15 K	1.43771 ± 0.002	1.43437 ± 0.002	1.43055 ± 0.002	1.42738 ± 0.002	1.42572 ± 0.002	1.4242 ± 0.002	1.42386 ± 0.002	1.42219 ± 0.002
318.15 K	1.43584 ± 0.002	1.43252 ± 0.002	1.42875 ± 0.002	1.42557 ± 0.002	1.42392 ± 0.002	1.42243 ± 0.002	1.42208 ± 0.002	1.42043 ± 0.002
